In patent US10138222B2, “Substituted benzamides as RIPK2 inhibitors” (Boehringer Ingelheim International GmbH, priority 2016, dated 2018):

target: RIPK2 (Homo sapiens (Human), UniProt O43353); experiment: RIPK2 inhibition, ADP-Glo Kinase Assay; format: biochemical; conditions: 8His-RIPK2 FL enzyme 8 nM, ATP 5 μM, 15 minutes pre-incubation, 60 minutes at 37° C., luminescence
Description: RIPK2 inhibition for compounds in Table 1 are shown in Table 3 and measured using the following method:
Materials: White, 384-well optiplates (cat.no. 6007290) were purchased from PerkinElmer. The V9103X ADP-Glo Kinase Assay Custom (including ultra-pure ATP) was purchased from Promega. 8His-RIPK2 FL was prepared in-house. All other materials were of highest grade commercially available.
Method: In a 384-well plate, test compound diluted in assay buffer (1% DMSO final) is mixed with 8His-RIPK2 FL enzyme (final concentration of 8 nM). After 15 minutes of pre-incubation at RT, ATP dissolved in assay buffer is added (final concentration 5 μM). The mixture is incubated for 60 minutes at 37° C. in a humidified incubator. Then, ADP Glo Reagent is added, followed by a 40 minute incubation at rt. Finally, Kinase Detection Reagent is added and the entire mixture is incubated for 40 min at RT. The luminescence signal is measured with an Envision reader to determine the amount of ADP produced. Assay buffer: 25 mM HEPES (4-(2-hydroxyethyl)-1-piperazinethanesulfonic acid), 0.1% BSA (bovine serum albumin), 10 mM MgCl2, 5 mM MnCl2, 50 mM KCl, 0.01% CHAPS (3-[(3-cholamidopropyl)dimethylammonio]-1-propanesulfonate), 10 μM Na3VO4, 1 mM DTT (dithiothreitol), pH 7.5 All plates contain wells with vehicle controls instead of compound (1% DMSO) as reference for the high signal (100% CTL (100% of control), high signal), and wells without enzyme as reference for low signal (0% CTL, low signal). The luminescent signal generated is proportional to the ADP produced and is correlated with enzyme activity. The analysis of the data is performed by the calculation of the percentage of ADP production in the presence of the test compound and RIPK2 as compared to the ADP production in the presence of RIPK2 plus 50 μM Gefitinib. (RLU (relative luminescence units) (sample)−RLU(low control))*100/(RLU(high value)−RLU(low control)) [RLU=relative luminescence units].

Sequence of RIPK2 (O43353 whole entry): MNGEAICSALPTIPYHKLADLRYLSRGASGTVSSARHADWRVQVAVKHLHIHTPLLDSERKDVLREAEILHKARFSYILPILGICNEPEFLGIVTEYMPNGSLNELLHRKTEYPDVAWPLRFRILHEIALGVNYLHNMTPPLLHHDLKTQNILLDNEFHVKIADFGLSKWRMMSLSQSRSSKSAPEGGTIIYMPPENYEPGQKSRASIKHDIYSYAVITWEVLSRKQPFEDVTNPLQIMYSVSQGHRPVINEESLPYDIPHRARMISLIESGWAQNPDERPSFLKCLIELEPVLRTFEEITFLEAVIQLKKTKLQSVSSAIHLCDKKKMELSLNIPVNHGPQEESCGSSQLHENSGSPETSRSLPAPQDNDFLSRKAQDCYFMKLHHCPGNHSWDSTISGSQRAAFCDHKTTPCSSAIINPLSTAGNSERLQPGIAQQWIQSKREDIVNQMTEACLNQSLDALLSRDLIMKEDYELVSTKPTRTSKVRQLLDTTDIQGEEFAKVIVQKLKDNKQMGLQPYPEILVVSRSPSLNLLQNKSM

Row | SMILES | IC50
1 | Cc1ccc(C(=O)NC2CC2)cc1-c1cnn(-c2cncc(NC(C)C3CCOC3)c2)c1 (centres unmarked) [Example 67, N-cyclopropyl-4-methyl-3-[1-(5-{[1-(oxolan-3-yl)ethyl]amino}pyridin-3-yl)-1H-pyrazol-4-yl]benzamide] | 1.6 nM
2 | Cc1ccc(C(=O)NC2CC2)cc1-c1cn(-c2cncc(C3CC3)c2)cn1 [Example 71, N-cyclopropyl-3-[1-(5-cyclopropyl-pyridin-3-yl)-1H-imidazol-4-yl]-4-methylbenzamide] | 2.7 nM
3 | Cc1ccc(C(=O)NC2CC2)cc1-c1cn(-c2cncc(N(C)C)c2)cn1 [Example 72, N-cyclopropyl-3-{1-[5-(dimethyl-amino)pyridin-3-yl]-1H-imidazol-4-yl}-4-methylbenzamide] | 3.9 nM
4 | COCCN1CCC(Nc2cncc(-n3cc(-c4cc(C(=O)NC5CC5)c(F)cc4C)cn3)c2)CC1 [Example 74, N-cyclopropyl-2-fluoro-5-[1-(5-{[1-(2-methoxyethyl)piperidin-4-yl]amino}pyridin-3-yl)-1H-pyrazol-4-yl]-4-methylbenzamide] | 1 nM
5 | Cc1cc(F)c(C(=O)NC2CC2)cc1-c1cnn(-c2cncc(NC3CC4CCC(C3)N4C3COC3)c2)c1 (centres unmarked) [Example 75, N-cyclopropyl-2-fluoro-4-methyl-5-[1-(5-{[8-(oxetan-3-yl)-8-azabicyclo[3.2.1]octan-3-yl]amino}pyridin-3-yl)-1H-pyrazol-4-yl]benzamide] | 0.9 nM
6 | Cc1ccc(C(=O)NC2CC2)cc1-c1cnn(-c2cncc(OCc3ccccc3)c2)c1 [Example 80, 3-{1-[5-(benzyloxy)pyridin-3-yl]-1H-pyrazol-4-yl}-N-cyclopropyl-4-methylbenzamide] | 26 nM
7 | Cc1ccc(C(=O)NC2CC2)cc1-c1cnn(-c2cncc(OC(C)C)c2)c1 [Example 81, N-cyclopropyl-4-methyl-3-{1-[5-(propan-2-yloxy)pyridin-3-yl]-1H-pyrazol-4-yl}benzamide] | 5.4 nM
8 | Cc1ccc(C(=O)NC2CC2)cc1-c1cnn(-c2cncc(O)c2)c1 [Example 95, N-cyclopropyl-3-[1-(5-hydroxypyridin-3-yl)-1H-pyrazol-4-yl]-4-methyl-benzamide] | 6.1 nM
9 | Cc1ccc(C(=O)NC2CC2)cc1-c1cnn(-c2cncc(OC3CCOCC3)c2)c1 [Example 96, N-cyclopropyl-4-methyl-3-{1-[5-(oxan-4-yloxy)pyridin-3-yl]-1H-pyrazol-4-yl}benzamide] | 5.4 nM
10 | Cc1ccc(C(=O)NC2CC2)cc1-c1cnn(-c2cncc(N3CCOCC3)c2)c1 [Example 98, N-cyclopropyl-4-methyl-3-{1-[5-(morpholin-4-yl)pyridin-3-yl]-1H-pyrazol-4-yl}benzamide] | 10 nM
11 | Cc1ccc(C(=O)NC2CC2)cc1-c1cnn(-c2cncc(N3CCN(C)CC3)c2)c1 [Example 100, N-cyclopropyl-4-methyl-3-{1-[5-(4-methylpiperazin-1-yl)pyridin-3-yl]-1H-pyrazol-4-yl}benzamide] | 29 nM
12 | Cc1ccc(C(=O)NC2CC2)cc1-c1cnn(-c2cncc(C3(C(N)=O)CC3)c2)c1 [Example 101, 3-{1-[5-(1-carbamoylcyclopropyl)pyridin-3-yl]-1H-pyrazol-4-yl}-N-cyclopropyl-4-methylbenzamide] | 370 nM
13 | O=C(NC1CC1)c1cc(-c2cnn(-c3cncc(C4CC4)c3)c2)c(Cl)cc1F [Example 104, 4-chloro-N-cyclopropyl-5-[1-(5-cyclopropylpyridin-3-yl)-1H-pyrazol-4-yl]-2-fluorobenzamide] | 1.9 nM
14 | Cc1cc(F)c(C(=O)NC2CC2)cc1-c1cnn(-c2cncc(C3CC3)c2)c1 [Example 105, N-cyclopropyl-5-[1-(5-cyclopropyl-pyridin-3-yl)-1H-pyrazol-4-yl]-2-fluoro-4-methylbenzamide] | 1 nM
15 | Cc1ccc(C(=O)NC2CC2)cc1-c1cnn(-c2cncc(N)c2)c1 [Example 106, 3-[1-(5-aminopyridin-3-yl)-1H-pyrazol-4-yl]-N-cyclopropyl-4-methylbenzamide] | 7 nM
16 | CNC(=O)Nc1cncc(-n2cc(-c3cc(C(=O)NC4CC4)ccc3C)cn2)c1 [Example 107, N-cyclopropyl-4-methyl-3-(1-{5-[(methylcarbamoyl)amino]pyridin-3-yl}-1H-pyrazol-4-yl)benzamide] | 3.3 nM
17 | Cc1ccc(C(=O)NC2CC2)cc1-c1cnn(-c2cncc(NC(=O)NC(C)C)c2)c1 [Example 110, N-cyclopropyl-4-methyl-3-[1-(5-{[(propan-2-yl)carbamoyl]amino}pyridin-3-yl)-1H-pyrazol-4-yl] benzamide] | 3.4 nM
18 | CC(=O)Nc1cncc(-n2cc(-c3cc(C(=O)NC4CC4)ccc3C)cn2)c1 [Example 111, N-cyclopropyl-3-[1-(5-acetamido-pyridin-3-yl)-1H-pyrazol-4-yl]-4-methylbenzamide] | 5.3 nM
19 | COCC(=O)Nc1cncc(-n2cc(-c3cc(C(=O)NC4CC4)ccc3C)cn2)c1 [Example 112, N-cyclopropyl-3-{1-[5-(2-methoxyacetamido)pyridin-3-yl]-1H-pyrazol-4-yl}-4-methylbenzamide] | 7.8 nM

The next lines start with the values.

Row | IC50 | SMILES
20 | 1.1 nM | Cc1cc(F)c(C(=O)NC2CC2)cc1-c1cnn(-c2cncc(NC3CCN(C4COC4)CC3)c2)c1 [Example 68, N-cyclopropyl-2-fluoro-4-methyl-5-[1-(5-{[1-(oxetan-3-yl)piperidin-4-yl]amino}pyridin-3-yl)-1H-pyrazol-4-yl]benzamide]
21 | 15 nM | Cc1ccc(C(=O)NC2CC2)cc1-c1cnn(-c2cncc(NC3CCN(C(=O)OC(C)(C)C)CC3)c2)c1 [Example 73, tert-butyl 4-[(5-{4-[5-(cyclopropylcarbamoyl)-2-methyl-phenyl]-1H-pyrazol-1-yl}pyridin-3-yl)amino]piperidine-1-carboxylate]
22 | 0.61 nM | Cc1ccc(C(=O)NC2CC2)cc1-c1cnn(-c2cncc(NC3CCN(C)CC3)c2)c1 [Example 76, N-cyclopropyl-4-methyl-3-(1-{5-[(1-methylpiperidin-4-yl)amino]pyridin-3-yl}-1H-pyrazol-4-yl)benzamide]
23 | 1.1 nM | Cc1cc(F)c(C(=O)NC2CC2)cc1-c1cnn(-c2cncc(NC3CCN(C)CC3)c2)c1 [Example 77, N-cyclopropyl-2-fluoro-4-methyl-5-(1-{5-[(1-methylpiperidin-4-yl)amino]pyridin-3-yl}-1H-pyrazol-4-yl) benzamide]
24 | 1.3 nM | Cc1ccc(C(=O)NC2CC2)cc1-c1cnn(-c2cncc(NC3CCOCC3)c2)c1 [Example 78, N-cyclopropyl-4-methyl-3-(1-{5-[(oxan-4-yl)amino]pyridin-3-yl}-1H-pyrazol-4-yl)benzamide]
25 | 1.4 nM | Cc1ccc(C(=O)NC2CC2)cc1-c1cn(-c2cncc(NC3CCN(C4COC4)CC3)c2)cn1 [Example 79, N-cyclopropyl-4-methyl-3-[1-(5-{[1-(oxetan-3-yl)piperidin-4-yl]amino}pyridin-3-yl)-1H-imidazol-4-yl] benzamide]
26 | 1.5 nM | Cc1ccc(C(=O)NC2CC2)cc1-c1cnn(-c2cncc(NC3CCNCC3)c2)c1 [Example 92, N-cyclopropyl-4-methyl-3-(1-{5-[(piperidin-4-yl)amino]pyridin-3-yl}-1H-pyrazol-4-yl)benzamide]
27 | 1.5 nM | Cc1ccc(C(=O)NC2CC2)cc1-c1cnn(-c2cncc(NC3CCN(C4CCC4)CC3)c2)c1 [Example 93, 3-(1-{5-[(1-cyclobutylpiperidin-4-yl)amino]pyridin-3-yl}-1H-pyrazol-4-yl)-N-cyclopropyl-4-methyl-benzamide]
28 | 0.81 nM | Cc1ccc(C(=O)NC2CC2)cc1-c1cnn(-c2cncc(NC3CCN(C4COC4)CC3)c2)c1 [Example 94, N-cyclopropyl-4-methyl-3-[1-(5-{[1-(oxetan-3-yl)piperidin-4-yl]amino}pyridin-3-yl)-1H-pyrazol-4-yl] benzamide]
29 | 3.3 nM | Cc1ccc(C(=O)NC2CC2)cc1-c1cnn(-c2cncc(NC3CCCCC3)c2)c1 [Example 97, 3-{1-[5-(cyclohexylamino)pyridin-3-yl]-1H-pyrazol-4-yl}-N-cyclo-propyl-4-methylbenzamide]
30 | 2.6 nM | Cc1ccc(C(=O)NC2CC2)cc1-c1cnn(-c2cncc(NCC3CC3)c2)c1 [Example 99, N-cyclopropyl-3-(1-{5-[(cyclopropylmethyl)amino]pyridin-3-yl}-1H-pyrazol-4-yl)-4-methyl-benzamide]
31 | 4.4 nM | Cc1ccc(C(=O)NC2CC2)cc1-c1cnn(-c2cncc(NC(=O)NC3CC3)c2)c1 [Example 108, N-cyclopropyl-3-(1-{5-[(cyclopropylcarbamoyl)amino]pyridin-3-yl}-1H-pyrazol-4-yl)-4-methylbenzamide]
32 | 3.6 nM | Cc1ccc(C(=O)NC2CC2)cc1-c1cnn(-c2cncc(NC(=O)NC3CCC3)c2)c1 [Example 109, 3-(1-{5-[(cyclobutylcarbamoyl)amino]pyridin-3-yl}-1H-pyrazol-4-yl)-N-cyclopropyl-4-methylbenzamide]
